Patent US9549978B2, “Amino acid sequences for controlling pathogens” (CENTRO DE INGENIERIA GENETICA Y BIOTECHNOLOGIA, priority 2011, dated 2017)

What was measured:
[1] = test system: A. hydrophila (Gram−); test: Microdilution antimicrobial activity (MIC/IC50); type: cell-based
Experimental: (§1) The peptides of the invention were also obtained by chemical synthesis using methods known to those skilled in this technical field. The antimicrobial activity of the peptides was determined by the microdilution method. To determine the minimum inhibitory concentration (MIC), each peptide was serially diluted 1:2. Ten microliters of each diluted peptide were incubated with 90 μL of the bacteria or yeast suspension (5×10^5 CFU (colony forming units) per mL) in Mueller Hinton broth (bacteria) or Sabouraund broth (fungi) and incubated for 18 h at 28° C. (for fish pathogens and fungi) or 37° C. (for mammalian pathogens). The MIC is defined as the lowest peptide concentration at which inhibition of bacterial growth occurs. All assays were performed in triplicate, and culture medium (without microorganism) and microorganisms to which no peptide was added were used as controls.

[2] = test system: Bacillus subtilis (Gram+); test: Microdilution antimicrobial activity (MIC/IC50); type: cell-based; settings: for IC50: read-out: IC50 (peptide concentration that produces 50% of bacterial growth inhibition)
Experimental: as §1

[3] = test system: Candida albicans (fungus); test: Microdilution antimicrobial activity (MIC/IC50); type: cell-based; settings: for MIC: Sabouraund broth, 28° C.; for IC50: read-out: IC50 (peptide concentration that produces 50% of bacterial growth inhibition)
Experimental: as §1

[4] = test system: E.coli (Gram−); test: Microdilution antimicrobial activity (MIC/IC50); type: cell-based; settings: for IC50: read-out: IC50 (peptide concentration that produces 50% of bacterial growth inhibition)
Experimental: as §1

[5] = test system: Edwardsiella tarda (Gram−); test: Microdilution antimicrobial activity (MIC/IC50); type: cell-based; settings: for IC50: read-out: IC50 (peptide concentration that produces 50% of bacterial growth inhibition)
Experimental: as §1

[6] = test system: Pseudomonas aeuroginosa (Gram−); test: Microdilution antimicrobial activity (MIC/IC50); type: cell-based; settings: for IC50: read-out: IC50 (peptide concentration that produces 50% of bacterial growth inhibition)
Experimental: as §1

[7] = test system: Staphylococcus aureus (Gram+); test: Microdilution antimicrobial activity (MIC/IC50); type: cell-based; settings: for MIC: 18 h, Mueller Hinton broth; for IC50: read-out: IC50 (peptide concentration that produces 50% of bacterial growth inhibition)
Experimental: as §1

[8] = test system: Vibrio sp. (Gram−); test: Microdilution antimicrobial activity (MIC/IC50); type: cell-based; settings: for IC50: read-out: IC50 (peptide concentration that produces 50% of bacterial growth inhibition)
Experimental: as §1

[9] = test system: Aeromonas hydrophila; test: Resistance to A. hydrophila challenge in tilapia, peptides by intraperitoneal injection; type: in vivo, tilapia (O. niloticus); settings: LD50 challenge, mortality recorded 7 days, compared to PBS group
Experimental: We proceeded to evaluate the utility of antimicrobial peptides to enhance disease resistance in vivo. In a first test, we used 130 tilapias (O. niloticus) with a body weight of 10 g, which were randomly distributed in 13 experimental groups of ten animals per group. This assay was performed in order to determine the minimum time of treatment required to enhance the survival of fish against challenge with A. hydrophila. Each peptide was administered at a concentration of 1 μg per fish by intraperitoneal injection, for 2, 4, 8 and 15 days. An additional group was placed which PBS was administered as a control. The experimental groups were:
After the time of peptide administration, we performed a challenge test by intraperitoneal injection of the median lethal dose (LD50) of A. hydrophila, and mortality was recorded during 7 days. We calculated the relative percent of survival (RPS) as: RPS (%)=(% mortality controls−% mortality treated)/(% mortality controls)×100
A second test was performed to determine the optimal dose of peptide required to increase the survival of the fish following challenge with A. hydrophila. We used 130 tilapias (O. niloticus), with a body weight of about 10 g, which were randomly distributed in 13 experimental groups of 10 animals each. Each peptide was administered at a concentration of 0.5, 1, 5 and 10 μg per fish for 15 days. The experimental groups were:
After 15 days of peptide administration, we performed a challenge test by is intraperitoneal injection of the LD50 of A. hydrophila, and mortality was recorded during 7 days. RPS was calculated as described above.

[10] = read-out: EC50 (LPS binding/neutralization); 0.5 EU/ml LPS, 37° C., 30 min, LAL
Experimental: Besides the antimicrobial activity and the possibility of increase disease resistance, we studied the ability of antimicrobial peptides of the present invention to neutralize LPS, by the Limulus amebocyte lysate (LAL) test. This assay detects the presence of free LPS unneutralized. Various concentrations of peptides were incubated with 0.5 EU/ml of LPS at 37° C. for 30 min. LPS alone was used as positive control of the assay. Subsequently, were added 100 μL of the mixture to equal volume of LAL reagent. The kinetic of the turbidity was measured using the equipment Tube Reader ATi-321 (Lab Kinetics, UK).

[11] = test system: OVA; test: Cytokine secretion by OVA-stimulated splenocytes of immunized mice, ELISA; type: in vivo, BALB/c mice
Experimental: FIG. 8. IFN-γ secretion by spleen cells isolated from immunized animals. […] Bars represent the concentration of IFN-γ±standard deviation (n=5). Statistical analysis of the data was performed by ANOVA test and Bonferroni's multiple comparison test (*: p<0.05, ***:p<0.001).
Animals were immunized on days 0 and 14, and blood extractions were performed on days 0, 14 and 21. The serums of animals were used for determination of specific antibody titers (total IgG, IgG1 and IgG2a). At 59 days from the beginning of the experiment was extracted the spleen from the mice to determine the cellular immune response against the antigen OVA. The spleen was extracted under aseptic conditions and the splenocytes were isolated and were seeded 2.5×10^5 cells, at a cell concentration of 2×10^6 cells/mL in 96-well round bottom plate. Cells were stimulated with Concanavalin A (5 μg/ml) or OVA (10 μg/mL) and incubated at 37° C., 5% CO2 for 4 days. Culture supernatants were collected and used for analysis of the levels of interleukin-4 and interferon-γ by ELISA.

[12] = test system: OVA; test: Co-immunization with OVA in mice, second immunization schedule, antibody titers by ELISA; type: in vivo, BALB/c mice
Experimental: FIG. 7. Titers of total immunoglobulin G (IgG) (A), IgG1 and IgG2a (B) induced in mice by immunization with OVA co-administered with the peptides Oreochromicin I, Oreochromicin II and Oreochromicin III. Male Balb/c mice (8/group) were immunized by intraperitoneal injection on days 0 and 14 with OVA alone (5 μg/animal) or in combination with peptides at the doses of 0.238×10^20 molecules/animal (equivalent to 0.1, 0.12 and 0.14 μg/animal for Oreochromicina I, II and III, respectively) and 2.38×10^20 molecules/animal (equivalent to 1, 1.2 and 1.4 μg/animal for Oreochromicina I, II and III, respectively). The negative control group was injected with 0.1 mL of PBS. The OVA-specific humoral immune response (total IgG) was tested at 14 and 21 days after the first immunization. IgG1 and IgG2a antibody titers were analyzed at 21 days after the first immunization. The OVA-specific antibody titers were determined by ELISA. (A) Total IgG titers. Bars represent the IgG titer standard error (n=8). Statistical analysis was performed using a Kruskal-Wallis test and the Dunn multiple comparison test. Asterisks represent significant differences with the PBS group (* indicates p<0.05, ***indicates p<0.001). (B) IgG1 and IgG2a titers. Bars represent the antibody titer±standard error (n=8). Statistical analysis was performed using Mann Whitney test (*denotes p<0.05).
64 BALB/c male mice were selected, which were 6 weeks old, and were separated into 8 experimental groups of 8 mice each. Administration of the immunogens was is conducted by intraperitoneal injection in a volume of 0.1 mL. The antimicrobial peptides were administered in equimolar amounts (0.238×10^20 molecules and 2.38×10^20 molecules). The experimental groups were:
Animals were immunized on days 0 and 14, and blood extractions were performed on days 0, 14 and 21. The serums of animals were used for determination of specific antibody titers (total IgG, IgG1 and IgG2a). At 59 days from the beginning of the experiment was extracted the spleen from the mice to determine the cellular immune response against the antigen OVA. […]

[13] = test system: MY32; test: Co-immunization with MY32 antigen in tilapia, IgM titers by ELISA; type: in vivo, tilapia (O. niloticus); settings: MY32 1 μg/g + peptide 10 μg/animal, adjuvanted in Montanide 888; p<0.05
Experimental: FIG. 9. IgM titers induced by immunization of tilapia (O. niloticus) with MY32 protein co-administered with the antimicrobial peptide Oreochromicin I. Fish (10 fish/group) were immunized by intraperitoneal injection on days 0 and 14. The negative control group was injected with 0.3 mL of PBS. The humoral immune response specific for MY32 was analyzed at 14, 21 and 28 days after the first immunization. The IgM antibody titers specific for MY32 were determined by ELISA. Bars represent the IgM titer±standard error (n=10). Statistical analysis of the data was performed by ANOVA and the Newman-Keuls multiple comparison test (*indicates p<0.05).
To assess the ability of the peptide Oreochromicin I as molecular adjuvant in tilapia was used as vaccine antigen the protein MY32, previously known (Carpio et al. (2011) Vaccine 29: 2810-2820).
Six experimental groups were formed of 10 tilapias (O. niloticus) each with an s average weight of 45 g. The route of administration was intraperitoneal, the immunogen was applied in an injection volume of 0.3 mL. The experimental groups were:
The animals were immunized on days 0 and 14, and blood extractions were performed on days 0, 14, 21 and 28. The serums of the animals were used for the determination of IgM specific antibody titers.

Sequence	MIC [1]	MIC [2]	IC50 [2] [nM]	MIC [3]	IC50 [3] [µM]	MIC [4]	IC50 [4] [nM]	MIC [5]	IC50 [5] [µM]	MIC [6]	IC50 [6] [µM]	MIC [7]	IC50 [7] [nM]	MIC [8]	IC50 [8] [µM]	EC50 [10] [nM]	increase in survival (RPS, relative percent of survival) ([9]; 1 μg per fish i.p. for 15 days) [%]	also measured
FIHHIIGGLFSAGKAIHRLIRRRRR [Oreochromicin II, also recombinant or chemically synthesized]	MIC = 160 μM	MIC = 1.7 μM	589	MIC = 26.7 μM	12.9	MIC = 5 μM	2290	MIC = 20 μM	2.08	MIC = 6.67 μM	3.75	MIC = 5 μM	2020	MIC = 15 μM	2.5	1410		IC50 ([1]; read-out: IC50 (peptide concentration that produces 50% of bacterial growth inhibition)): 30.4 µM; increase in survival (RPS, relative percent of survival) ([9]; 1 μg per fish i.p. for 8 days): 48%; levels of secretion of IFN-γ vs OVA or PBS alone ([11]; splenocytes stimulated with OVA, peptide 1.2 μg/animal, p<0.05): significantly higher
FIHHIIGGLFSVGKHIHGLIHGH [Oreochromicin I, also recombinant or chemically synthesized]	Did not inhibit	MIC = 3 μM	1370	MIC = 20 μM	10.3	MIC = 6.7 μM	2960	MIC = 160 μM	11.1	MIC = 35 μM	29.4	MIC = 5 μM	2800	MIC = 80 μM	7.45	1230	45	titers of specific IgG2a against OVA vs OVA alone ([12]; OVA 5 μg + peptide 1 μg/animal, 21 days after first immunization, p<0.05): significantly greater; specific total IgG titer to OVA vs negative control group ([12]; OVA 5 μg + peptide 1 μg/animal, p<0.001): statistically superior; specific IgM titer against MY32 vs PBS, MY32 and MY32 + peptide 10 μg/fish [13]: statistically superior
IWDAIFHGAKHFLHRLVNPGGKDAVKDVQQKQ [Oreochromicin III, also recombinant or chemically synthesized]	Did not inhibit	MIC = 106 μM	19200	MIC = 40 μM	14.1	Did not inhibit		MIC = 160 μM	37	Did not inhibit		Did not inhibit			67.4	2990	45	total IgG titers compared to the negative control group ([12]; OVA 5 μg + peptide 1.4 μg/animal, p<0.05): statistically significant differences; levels of IFN-γ vs OVA or PBS alone ([11]; splenocytes stimulated with OVA 10 μg/mL, dose dependent, p<0.001): significantly higher
